{
  "source": "patent US12060588B2",
  "about": "“Methods of editing DNA methylation” (Whitehead Institute for Biomedical Research, priority 2016, dated 2024)",
  "key": {"BDNF promoter IV": {"tested_on": "BDNF promoter IV", "assay": "Tet-assisted bisulfite sequencing (TAB-seq) of 5-hmC in BDNF promoter IV", "format": "cell-based, mouse", "settings": "with 4 BDNF gRNAs; 40 and 60 hours post infection", "description": "FIGS. 11A-11L depict targeted demethylation of BDNF promoter IV by dCas9-Tet1 in neurons. […] PAM for each gRNA is highlighted by a red box. […] Note that cultured neurons were treated with AraC on DIV2 to halt cell division in glial cells and neural progenitors. […] FIG. 11C provides EDU labeling analysis for the mouse primary neurons over the course of KCl treatment for 24 hrs. Note that extremely few EDU positive cells were observed. Stained in red for EDU, green for MAP2 and DAPI for nuclei. Scale bar: 500 um. FIG. 11D Upper panel: provides quantification of neuronal density over the course of KCl treatment. The post-mitotic neuron density remains steadily around 4.5×10^4/cm2 over time. Bars represent mean±SD of three experimental replicates. Lower panel: provides quantification of the EDU positive cells over the course of KCl treatment. Less than 2% of the cells are EDU-positive over 24 hrs. Bars represent mean±SD of three experimental replicates. FIG. 11E provides confocal micrographs of BDNF induction by ectopic expression of dCas9-Tet1 and a set of 4 gRNAs targeting BDNF promoter IV. Stained in green for BDNF, magenta for MAP2, red for Cherry and blue for DAPI. […]\nBecause post-mitotic neurons were used for these experiments, loss of methylation was likely due to active demethylation. […] Similarly, 5-hmC was also detected after KCl treatment (FIG. 11I). […]"}, "[1]": {"tested_on": "MyoD distal enhancer (DMR-5)", "assay": "Bisulfite sequencing of the MyoD DMR-5 region in C3H10T1/2 cells", "format": "cell-based, mouse", "settings": "with target gRNAs, sorted infection-positive cells", "description": "FIGS. 4A-4H depict targeted demethylation of the MyoD distal enhancer by dCas9-Tet1 to facilitate conversion of fibroblasts to myoblasts. FIG. 4A provides a schematic representation of targeting the MyoD distal enhancer (DE) region in DMR-5 by dCas9-Tet1 (dC-T) with specific gRNAs. […] Cherry positive cells were FACS sorted for RT-qPCR analysis. Bars represent mean±SD of three experimental replicates. FIG. 4C bisulfite sequencing of cells in FIG. 4B. […] Shown is the mean percentage±SD of two biological replicates. […] FIG. 4F provides quantification of MyoD positive cell ratio 14-day post infection with lentiviruses expressing dC-T alone, dC-T with gRNAs targeting DMR-5, and dC-dT with the target gRNAs. […] FIG. 4H provides quantification of myotube density in MHC positive clusters with more than 2 or 5 nuclei at 14-days after infection. […] Data are quantified from 3-5 representative images for F-H. Bars represent mean±SD.\nSix muscle-specific DMRs have been described within the 50 kb upstream region of MyoD gene (Schultz et al., 2015), and DMR-5 overlaps with a known distal enhancer of MyoD (Brunk et al., 1996) as shown in FIG. 4A. […] The cells were cultured for 14 days and analyzed for MyoD and MHC (Myosin Heavy chain, a myotube specific marker) expression. […]"}},
  "data": [
    {"substance": "dCas9-Tet1: catalytically inactive Cas9 (dCas9) fused through NLS to the Tet1 catalytic domain, SEQ ID NO: 159; lentivirally expressed with gRNAs", "values": [
      {"measurement": "5-hmC level in BDNF promoter IV", "setting": "BDNF promoter IV", "value": "detected 40-hour post infection with dCas9-Tet1 and gRNA lentiviruses and diminished after 60 hours"},
      {"measurement": "methylation in the DMR-5 region", "setting": "[1]", "value": "substantial reduction of methylation"}
    ]}
  ]
}
